Assay results: publication PMC10226132, “First-in-Class Selective Inhibitors of the Lysine Acetyltransferase KAT8” (Journal of Medicinal Chemistry, 2023)

Key:
Type in all cases: biochemical
KAT5 = target: T1, KAT5 (Homo sapiens, UniProt Q92993); experiment: HotSpot KAT assay, KAT5; conditions: for inhibition at 200 µM: read-out: % inhibition at 200 μM KAT5 (25 nM), NI = no inhibition
T1 construct: full length human KAT5 (25 nM) and KAT7 (25 nM) were used; purchased Reaction Biology Corporation
Procedure: (§1) The effects of the compounds on other KATs were determined using the HotSpot KAT assay (Reaction Biology Corporation, Malvern, PA, USA) according to the supplier’s procedure. The recombinant catalytic domains of human KAT2A (aa 323–837, 15 nM), KAT2B (aa 492–658, 25 nM), KAT3B (aa 1284–1672, 1 nM), KAT6A (aa 488–778, 10 nM), KAT6B (aa 657–1069, 10 nM), and full length human KAT5 (25 nM) and KAT7 (25 nM) were used. Each enzyme was incubated with the relevant histone peptide [H3 peptide for KAT2A, KAT2B, KAT3B, KAT6A, and KAT7 (2.5–5 μM, depending on the KAT isoform); H2A peptide for KAT5 (1.25 μM); H4 peptide for KAT6B (2.5 μM)] as a substrate and radio-isotope-labeled [^3H]Acetyl-CoA (0.2–1.5 μM, depending on the KAT isoform) as an acetyl donor in the assay buffer [50 mM Tris–HCl (pH 8.0), 50 mM NaCl, 0.1 mM EDTA, 1 mM DTT, 0.1 mM PMSF, 1% DMSO] for 1 h at 30 °C in the presence or absence of various compounds (1% DMSO final) titrated in a 2-fold serial dilution starting at 200 μM. Histone peptide acetylation was assessed by liquid scintillation counting using a Tri-Carb 2800TR Liquid Scintillation Analyzer (Perkin Elmer). Experiments were performed in biological triplicates. Signal reduction compared to control was plotted (as inhibition percentage) as a function of compound concentration. In cases in which an IC50 was calculated, the values were fitted by nonlinear regression (GraphPad Prism 8.0).

KAT8 = target: T2, KAT8 (Homo sapiens, UniProt Q9H7Z6); experiment: Radioactive KAT8 inhibition assay; conditions: read-out: IC50 KAT8 (5 nM); enzyme 5 nM; 2-fold serial dilution from 200 μM; NI = no inhibition at 200 μM; mean ± SD of three independent experiments
T2 construct: using the previously purified KAT8 (173–458, 5 nM); 6xHis tag with TEV protease cleavage site (N, cleaved yes); made in house; host or cells: E. coli BL21(DE3)
T2 sequence (Q9H7Z6 173-458): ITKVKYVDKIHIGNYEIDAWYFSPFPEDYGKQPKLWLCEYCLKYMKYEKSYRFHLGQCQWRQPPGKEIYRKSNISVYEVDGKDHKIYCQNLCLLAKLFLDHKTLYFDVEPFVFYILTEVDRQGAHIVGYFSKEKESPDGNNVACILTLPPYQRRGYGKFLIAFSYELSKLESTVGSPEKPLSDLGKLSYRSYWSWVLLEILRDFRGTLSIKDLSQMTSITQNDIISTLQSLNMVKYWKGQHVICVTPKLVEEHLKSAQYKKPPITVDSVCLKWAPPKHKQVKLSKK
How it was run: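 Purified KAT8 preincubated 20 min at rt with inhibitor (2-fold dilutions from 200 μM, 1% DMSO), then [3H]Ac-CoA and biotinylated peptide added for 4 h at rt. Product captured on streptavidin scintillant plates and counted. IC50 by nonlinear regression of % inhibition, biological triplicates.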

KAT6A = target: T3, KAT6A (Homo sapiens, UniProt Q92794); experiment: HotSpot KAT assay, KAT6A; conditions: for inhibition at 200 µM: read-out: % inhibition at 200 μM KAT6A (10 nM), NI = no inhibition
T3 construct: KAT6A (aa 488–778, 10 nM); purchased Reaction Biology Corporation
T3 sequence (Q92794 488-778): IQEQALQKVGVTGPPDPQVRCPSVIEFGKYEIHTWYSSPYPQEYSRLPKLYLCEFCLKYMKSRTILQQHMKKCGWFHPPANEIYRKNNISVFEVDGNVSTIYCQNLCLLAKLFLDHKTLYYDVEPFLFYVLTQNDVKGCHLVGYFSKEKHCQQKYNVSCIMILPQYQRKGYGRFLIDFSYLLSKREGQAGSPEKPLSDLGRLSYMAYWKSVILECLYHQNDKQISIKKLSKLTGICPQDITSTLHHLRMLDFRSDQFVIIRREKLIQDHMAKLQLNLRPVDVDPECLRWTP
Procedure: as §1

KAT6B = target: T4, KAT6B (Homo sapiens, UniProt Q8WYB5); experiment: HotSpot KAT assay, KAT6B; conditions: for inhibition at 200 µM: read-out: % inhibition at 200 μM KAT6B (10 nM), NI = no inhibition
T4 construct: KAT6B (aa 657–1069, 10 nM); purchased Reaction Biology Corporation
T4 sequence (Q8WYB5 657-1069): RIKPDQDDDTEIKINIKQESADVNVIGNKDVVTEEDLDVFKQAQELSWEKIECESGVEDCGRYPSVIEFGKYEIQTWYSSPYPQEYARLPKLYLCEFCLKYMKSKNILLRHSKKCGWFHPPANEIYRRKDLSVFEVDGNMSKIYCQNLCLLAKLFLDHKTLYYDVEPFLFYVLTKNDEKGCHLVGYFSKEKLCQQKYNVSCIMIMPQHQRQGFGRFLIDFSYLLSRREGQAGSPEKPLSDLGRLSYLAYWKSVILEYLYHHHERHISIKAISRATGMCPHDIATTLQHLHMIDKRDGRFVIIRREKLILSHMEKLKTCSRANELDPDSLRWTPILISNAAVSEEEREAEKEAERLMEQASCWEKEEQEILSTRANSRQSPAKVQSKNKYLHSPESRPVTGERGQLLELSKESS
Procedure: as §1

KDAC2 = KDAC2 (Homo sapiens, UniProt Q92769); experiment: KDAC inhibition assay, KDAC2; conditions: mean of three technical replicates
KDAC2, sequence (Q92769 whole entry, canonical isoform): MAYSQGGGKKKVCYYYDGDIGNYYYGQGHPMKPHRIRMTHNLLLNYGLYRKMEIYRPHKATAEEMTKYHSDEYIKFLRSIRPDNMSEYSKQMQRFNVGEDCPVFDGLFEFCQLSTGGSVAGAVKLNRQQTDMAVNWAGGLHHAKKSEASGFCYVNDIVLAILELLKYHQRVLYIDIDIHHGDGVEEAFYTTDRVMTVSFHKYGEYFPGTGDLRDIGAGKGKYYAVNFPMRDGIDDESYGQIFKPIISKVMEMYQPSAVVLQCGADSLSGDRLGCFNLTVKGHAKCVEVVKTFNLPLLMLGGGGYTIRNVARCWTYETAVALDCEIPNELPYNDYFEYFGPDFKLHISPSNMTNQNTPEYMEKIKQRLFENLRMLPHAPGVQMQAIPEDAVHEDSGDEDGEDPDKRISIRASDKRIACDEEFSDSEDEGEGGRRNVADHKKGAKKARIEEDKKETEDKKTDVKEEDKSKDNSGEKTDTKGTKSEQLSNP
Procedure: (§2) KDAC1, 2, 3 6, and 8 inhibition assays were performed as described previously.[52] Briefly, the relevant human recombinant KDAC was diluted in an assay buffer with the following composition: 150 mM NaCl, 25 mM Tris–HCl (pH 8.0), 2.7 mM KCl, and 1 mM MgCl2; BSA (0.1 mg/mL) was also added in the case of KDAC1. Forty microliters of this solution were added to 10 μL of each inhibitor ([…]) and 50 μL of KDAC Assay substrate (Boc-Lys-(Ac)-AMC, 7–100 μM final concentration, depending on the KDAC isoform), and the resulting solution was mixed. […] After thorough mixing of the resulting solution, the plate was covered and incubated at 37 °C for 25 min and the fluorescence (λemission = 460 nm; λexcitation = 390 nm) was measured on a EnSight Multimode Plate Reader (Perkin Elmer). The shown values are average of three technical replicates ± SD.

KAT7 = target: T5, KAT7 (Homo sapiens, UniProt O95251); experiment: HotSpot KAT assay, KAT7; conditions: for inhibition at 200 µM: read-out: % inhibition at 200 μM KAT7 (25 nM), NI = no inhibition
T5 construct: full length human KAT5 (25 nM) and KAT7 (25 nM) were used; purchased Reaction Biology Corporation
T5 sequence (O95251 whole entry): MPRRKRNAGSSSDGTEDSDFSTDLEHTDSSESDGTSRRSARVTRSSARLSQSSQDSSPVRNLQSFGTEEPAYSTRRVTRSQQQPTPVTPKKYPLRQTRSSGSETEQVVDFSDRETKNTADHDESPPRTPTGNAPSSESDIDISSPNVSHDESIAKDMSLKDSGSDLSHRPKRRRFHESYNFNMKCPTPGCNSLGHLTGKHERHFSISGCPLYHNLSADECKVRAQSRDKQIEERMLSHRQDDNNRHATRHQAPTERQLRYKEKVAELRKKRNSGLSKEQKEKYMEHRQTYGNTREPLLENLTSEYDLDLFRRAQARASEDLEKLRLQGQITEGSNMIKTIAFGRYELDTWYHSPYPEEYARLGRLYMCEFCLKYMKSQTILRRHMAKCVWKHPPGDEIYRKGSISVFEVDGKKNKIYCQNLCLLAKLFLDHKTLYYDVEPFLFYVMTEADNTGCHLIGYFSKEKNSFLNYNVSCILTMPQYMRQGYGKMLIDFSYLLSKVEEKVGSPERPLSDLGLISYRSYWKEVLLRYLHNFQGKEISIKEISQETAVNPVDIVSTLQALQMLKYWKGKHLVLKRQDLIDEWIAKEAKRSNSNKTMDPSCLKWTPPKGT
Procedure: as §1

KAT2B = target: T6, KAT2B (Homo sapiens, UniProt Q92831); experiment: HotSpot KAT assay, KAT2B; conditions: enzyme 25 nM; NI = no inhibition at 200 μM; mean ± SD of three independent experiments
T6 construct: KAT2B (aa 492–658, 25 nM); purchased Reaction Biology Corporation
T6 sequence (Q92831 492-658): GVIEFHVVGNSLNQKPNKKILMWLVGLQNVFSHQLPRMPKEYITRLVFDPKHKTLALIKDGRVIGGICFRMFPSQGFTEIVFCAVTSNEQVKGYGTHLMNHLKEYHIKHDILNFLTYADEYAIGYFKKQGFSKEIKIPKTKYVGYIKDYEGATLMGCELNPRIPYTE
How it was run: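 Radiometric assay: recombinant human catalytic domains (KAT2B aa 492–658, 25 nM; KAT6A aa 488–778, 10 nM; KAT6B aa 657–1069, 10 nM) or full-length KAT7 (25 nM), with H3 peptide (H4 for KAT6B, 2.5 μM) and [3H]acetyl-CoA, pH 8.0, 1 h, 30 °C. Compounds 2-fold from 200 μM; scintillation counting, triplicates, IC50 by nonlinear regression.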

KDAC1 = KDAC1 (Homo sapiens, UniProt Q13547); experiment: KDAC inhibition assay, KDAC1; conditions: mean of three technical replicates
KDAC1, sequence (Q13547 whole entry): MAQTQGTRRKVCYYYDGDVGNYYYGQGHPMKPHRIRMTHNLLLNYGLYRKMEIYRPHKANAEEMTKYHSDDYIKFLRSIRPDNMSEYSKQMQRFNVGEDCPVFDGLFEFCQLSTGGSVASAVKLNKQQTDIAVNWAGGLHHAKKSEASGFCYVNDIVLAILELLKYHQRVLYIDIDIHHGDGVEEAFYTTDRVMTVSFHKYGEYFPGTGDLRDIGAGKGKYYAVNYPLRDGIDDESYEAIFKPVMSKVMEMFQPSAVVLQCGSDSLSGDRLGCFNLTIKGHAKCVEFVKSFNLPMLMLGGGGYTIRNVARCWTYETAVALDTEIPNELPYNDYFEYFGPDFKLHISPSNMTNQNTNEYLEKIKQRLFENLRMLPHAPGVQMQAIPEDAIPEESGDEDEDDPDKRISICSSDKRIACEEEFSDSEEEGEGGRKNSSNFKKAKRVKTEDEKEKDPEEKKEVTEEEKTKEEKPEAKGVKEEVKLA
Procedure: as §2

T1 sequence (Q92993 whole entry): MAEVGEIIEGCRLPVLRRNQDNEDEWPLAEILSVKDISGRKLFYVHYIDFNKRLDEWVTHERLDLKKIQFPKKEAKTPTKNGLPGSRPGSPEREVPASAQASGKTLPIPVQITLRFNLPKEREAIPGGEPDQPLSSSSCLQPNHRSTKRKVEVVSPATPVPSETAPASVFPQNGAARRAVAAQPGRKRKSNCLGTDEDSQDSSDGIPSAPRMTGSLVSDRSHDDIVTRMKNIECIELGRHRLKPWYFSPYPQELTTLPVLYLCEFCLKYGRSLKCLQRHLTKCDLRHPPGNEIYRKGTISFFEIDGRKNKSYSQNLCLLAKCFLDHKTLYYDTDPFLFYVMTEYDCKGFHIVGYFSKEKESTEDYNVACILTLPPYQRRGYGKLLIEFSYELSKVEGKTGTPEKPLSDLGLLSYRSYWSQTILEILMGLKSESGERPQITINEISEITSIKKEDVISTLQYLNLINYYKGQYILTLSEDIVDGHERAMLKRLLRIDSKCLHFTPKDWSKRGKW

SMILES | inhibition at 200 µM (KAT5) | IC50 (KAT8) | inhibition at 200 µM (KAT6A) | inhibition at 200 µM (KAT6B) | inhibition at 50 µM (KDAC2) | inhibition at 100 µM (KDAC2) | inhibition at 200 µM (KAT7) | IC50 (KAT2B) | IC50 KAT2B (25 nM) (KAT2B) | inhibition at 50 µM (KDAC1) | inhibition at 100 µM (KDAC1) | IC50 (KAT5; control compound, read-out: IC50 KAT5 (25 nM)) | IC50 (KAT6A; read-out: IC50 KAT6A (10 nM), control compound) | IC50 (KAT6B; read-out: IC50 KAT6B (10 nM), control compound) | IC50 (KAT7; control compound, read-out: IC50 KAT7 (25 nM))
CC1=NN(c2ccc(C(=O)O)cc2)C(=O)/C1=C\c1ccc[nH]1 [Compound 19, (Z)-4-(4-((1H-Pyrrol-2-yl)methylene)-3-methyl-5-oxo-4,5-dihydro-1H-pyrazol-1-yl)benzoic Acid] | 11.3 ± 0.3% | 12.1 ± 0.6 µM | 0% | 4.8 ± 1.6% | 0.01% | 0.7% | 0% | > 200 µM | no inhibition at 200 μM | 0.03% | 0.3% |  |  |  | 
O=C(O)c1ccc(N2N=C(c3ccccc3)/C(=C/c3ccc[nH]3)C2=O)cc1 [Compound 34, (Z)-4-(4-((1H-Pyrrol-2-yl)methylene)-5-oxo-3-phenyl-4,5-dihydro-1H-pyrazol-1-yl)benzoic Acid] | 18.5 ± 1.3% | 8.1 ± 0.5 µM | 20.9 ± 0.4% | 19.6 ± 1% | 0.03% | 0.4% | 16.9 ± 0.7% | > 200 µM |  | 0.04% | 0.5% |  |  |  | 
CC1=NN(c2ccc(C(=O)O)cc2)C(=O)/C1=C\c1ccc(-c2cc(C)c(C)cc2[N+](=O)[O-])o1 [VII (C646), reference compound] |  | > 200 µM |  |  | 75.4% | 87.6% |  | > 200 µM |  | 0.7% | 1.3% | 18.3 µM | 15 µM | 5.6 µM | 8 µM
